Tested on: NV
Experiment: Binding of synthetic histo-blood antigen with NLV after glycosidase digestion
Set-up: species or system Norwalk Virus
Conditions: after digestion with α-N-acetylgalactosaminidase
Excerpt: Thus, the corresponding NLV could not be bound.

GalNAc-α1→3 (Fuc-α1→2) Gal β-O-space) nBSA [A trisaccharide-BSA]
Binding with NLV after removal of the antigenic determinant sugar epitope: losses binding
